The results in this text go back to article PMC5241826, “An extended N-H bond, driven by a conserved second-order interaction, orients the flavin N5 orbital in cholesterol oxidase” (Scientific Reports, 2017).

The target of the assay is T1, cholesterol oxidase (COx; H/D-COx) (Streptomyces sp. SA-COO, UniProt P12676).
T1 construct: gene choA; secreted mature form; H/D-exchanged crystal
As to the kind of experiment: joint X-ray/neutron crystal structure, […] A neutron, […] A X-ray. The format is binding. The following applies: H/D-exchanged crystal (D2O soak), room-temperature neutron data, crystallised at pH 5.2; Gly120 N-H to FAD N5 hydrogen bond.

T1 sequence (P12676 43-546): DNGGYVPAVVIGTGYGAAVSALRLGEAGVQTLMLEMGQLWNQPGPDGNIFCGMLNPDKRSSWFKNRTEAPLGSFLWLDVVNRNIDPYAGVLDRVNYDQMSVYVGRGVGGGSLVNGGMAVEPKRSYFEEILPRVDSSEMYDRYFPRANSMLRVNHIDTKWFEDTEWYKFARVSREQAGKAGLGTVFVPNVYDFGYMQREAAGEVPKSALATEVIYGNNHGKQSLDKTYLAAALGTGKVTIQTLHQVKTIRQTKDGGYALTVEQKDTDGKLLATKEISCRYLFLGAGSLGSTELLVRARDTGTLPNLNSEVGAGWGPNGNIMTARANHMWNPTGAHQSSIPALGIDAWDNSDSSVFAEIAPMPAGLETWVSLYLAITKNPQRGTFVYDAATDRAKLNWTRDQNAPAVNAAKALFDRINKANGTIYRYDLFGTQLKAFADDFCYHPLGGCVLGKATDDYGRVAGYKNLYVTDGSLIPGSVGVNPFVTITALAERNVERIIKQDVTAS

On to `Cc1cc2nc3c(=O)[nH]c(=O)nc-3n(C[C@H](O)[C@H](O)[C@H](O)COP(=O)(O)OP(=O)(O)OC[C@H]3O[C@@H](n4cnc5c(N)ncnc54)[C@H](O)[C@@H]3O)c2cc1C` [FAD], for which the “joint X-ray/neutron crystal structure, 2.2 A neutron, 1.5 A X-ray” value was “one involved in a conserved hydrogen bond between Gly120-NH and FAD-N5”.
